Test results: patent US8481500B2, “Compounds having neuroprotective properties” (Universidad del Pais Vasco, priority 2005, dated 2013)
“Also recorded” adds a separate entry of the source.

Columns and labels:
[1] = system: transient cerebral ischemia; assay: Classically conditioned eyelid responses after global ischemia; type: in vivo, Sprague-Dawley rats; conditions: rats subjected to global ischemia; 10 conditioning sessions
Procedure: (§1) Four experimental groups of Sprague-Dawley rats (each group contained 20 animals) were randomly selected: control (C), ischemic (ISCH), ischemic animals treated with mangiferin (I+MNG), and ischemic animals treated with morin (I+MOR). Transient cerebral ischemia was induced by means of occlusion of the vertebral and common carotid arteries for 10 minutes. The criteria for determining cerebral ischemia were the bilateral loss of stretch reflex, limb stiffness and mydriasis. The rectal and body temperature was maintained at 37° C. during surgery and the ischemia. […] The group of control animals was treated similarly to the group with ischemia, but none of their common carotid arteries was occluded.
(§2) Mangiferin and morin were administered intraperitoneally at a concentration of 10 mg/kg of body weight, 30 minutes after the ischemic stimulus and then at a concentration of 5 mg/kg every 12 hours for 7 days.
The study of the eyelid responses by means of classic conditioning was carried out in 10 Sprague-Dawley rats per experimental group. Each animal was anesthetized with ketamine (100 mg/kg) and xylazine (20 mg/kg). […]
A quantitative analysis of the classically conditioned eyelid responses from […] (C, dotted line) and mice with ischemia (ISCH, circles), and from mice with ischemia treated with mangiferin (I+MNG, squares) or morin (I+MOR, triangles), is shown in FIG. 4. […]

[2] = system: superoxide production in the CA1 hippocampus region; assay: Superoxide production in the CA1 hippocampus region after transient cerebral ischemia; type: in vivo, Sprague-Dawley rats; conditions: 1 day after transient global ischemia; i.p. 10 mg/kg 30 minutes after ischemia, then 5 mg/kg every 12 hours
Procedure: as §1, §2
The method described by Chan et al., 1998 (J Neurosci 18: 8292-99) was followed. […] The fluorescence was examined in cryostat sections (10 μm) and was analyzed with a fluorescence microscope (Zeiss Axiophot). The images were taken with a digital camera (Axio Vision, Zeiss) and analyzed with the Image Pro Plus program.

oligodendrocyte cultures = assay: Oligodendrocyte culture death caused by AMPA; type: cell-based; conditions: AMPA 10 μM for 5 minutes; polyphenol 10-100000 nM added 24 hours before; read 24 hours later
Procedure: The oligodendrocyte cultures were in turn incubated with AMPA [(RS)-α-amino-3-hydroxy-5-methyl-4-isoxazolepropionic hydrobromic acid] agonists, at a 10 μM concentration for 5 minutes. The polyphenols, mangiferin and morin, were added 24 hours before the exposure of the agonist and until the end of the experiments at concentrations comprised between 10 and 100000 nM, and cell viability was measured by means of calcein fluorimetry 24 hours later. The values shown in FIG. 1B show the percentage of normalized cell death±S.E.M. of the triplicates according to the logarithm of the concentration from three different experiments. *: p<0.05; **: p<0.01.

[3] = system: neuron cultures from the brain cortex; assay: Excitotoxic neuronal death in neuron cultures (glutamate or NMDA); type: cell-based, Sprague Dawley rat; conditions: glutamate or NMDA 50 μM for 10 minutes; antioxidant 100 nM, kept 3 hours; p<0.001 vs agonist only
Procedure: The neuron cultures were obtained from the brain cortex of Sprague Dawley rat embryos of 18 days of gestation (Larm et al., 1996, Eur J Pharmacol 314: 249-54; Cheung et al., 1998, Neuropharmacol 37: 1419-29). The cells were nourished Neurobasal medium supplemented with B27 supplement (Invitrogen).
The glutamate or NMDA (N-methyl-D-aspartate) agonists were applied, both at a concentration of 50 μM, for 10 minutes. The antioxidants, morin and mangiferin, were added during the exposure of the agonist at a concentration of 100 nM and were maintained in the medium for 3 hours until cell viability was measured by means of fluorescein diacetate. […] The values are shown as the mean±S.E.M. of the quadruplicates from 3-4 different experiments.

[4] = system: transient cerebral ischemia; assay: NeuN+ cell count in the pyramidal layer of CA1 hippocampus after transient cerebral ischemia; type: in vivo, Sprague-Dawley rats; conditions: 7 and 70 days after ischemia; compared with placebo; i.p. 10 mg/kg, then 5 mg/kg every 12 hours for 7 days
Procedure: as §1
Mangiferin and morin were administered intraperitoneally at a concentration of 10 mg/kg of body weight, 30 minutes after the ischemic stimulus and then at a concentration of 5 mg/kg every 12 hours for 7 days. […]
The number of positive NeuN cells was quantified in the pyramidal layer of the CA1 hippocampus in control rats and operated rats, and in animals subjected to transient cerebral ischemia 7 and 70 days after the reperfusion (n=4-5 animals for every experimental group). The amounts were collected both from the left and the right hemisphere of each section analyzed by immunohistochemistry, with two sections for every experiment from at least three independent experiments. […]

Row | Compound | learning capacity (conditioned eyelid responses) [1] | fluorescence levels emitted by oxidized hydroethidine in neurons of the pyramidal layer of the CA1 region [2] | oligodendroglial death induced by excitotoxic stimuli (cell viability by calcein fluorimetry) (oligodendrocyte cultures) | excitotoxic neuronal death (cell viability by fluorescein diacetate) [3] | number of NeuN+ cells in the pyramidal layer of the CA1 hippocampus [4]
1 | morin | conserve the learning capacity | reduction | protect from neuronal and oligodendroglial death | significantly attenuates excitotoxic neuronal death | larger; also recorded: significant increase of positive NeuN^+ cells
2 | O=c1c2cc(O)c(O)cc2oc2cc(O)c([C@@H]3O[C@H](CO)[C@@H](O)[C@H](O)[C@H]3O)c(O)c12 [mangiferin] | conserve the learning capacity | reduction | protect from neuronal and oligodendroglial death | significantly attenuates excitotoxic neuronal death | larger; also recorded: significant increase of positive NeuN^+ cells
